Measured values reported in US11999727B2 (Tango Therapeutics, Inc., priority 2020, dated 2024).
pIC50: −log10 of the molar value.

Key:
PRMT5 [1] = target: T1, PRMT5 (Homo sapiens, UniProt O14744); test: PRMT5 biochemical IC50 assay with SAM as cofactor; details: PRMT5, SAM as cofactor; read-out: SAM IC50
T1 construct: purchased Viva (custom protein)

PRMT5 [2] = target: T1, PRMT5; test: PRMT5 biochemical IC50 assay with no cofactor; details: PRMT5, no cofactor; read-out: No Cofactor/ rel IC50
Excerpt: Table 1 indicates IC50 values (μM) against PRMT5 for exemplary compounds in the presence of SAM as cofactor, with no cofactor, and with MTA as cofactor, respectively (columns 4-6). […] Ki values can be calculated from the IC50 values as described in the Examples section. As detailed in the Examples section, for the assay performed in the presence of SAM, IC50=Ki×1.5 (Ki=IC50/1.5).

PRMT5 [3] = target: T1, PRMT5; test: PRMT5 biochemical IC50 assay with MTA as cofactor; details: PRMT5, MTA as cofactor; read-out: MTA IC50
[4] = test system: HAP1 MTAP-intact cell line; test: SDMA in-cell western assay, HAP1 MTAP-intact; format: cell-based; details: Homo sapiens, HAP1, SDMA in-cell western, HAP1 MTAP-intact; read-out: MTAP HAP1 intact IC50
Outline: (§1)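 IC50 values come from SDMA signal quantified by in-cell western in two HAP1 lines, one with native MTAP levels and one lacking MTAP.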

[5] = test system: HAP1 MTAP-deleted cell line; test: SDMA in-cell western assay, HAP1 MTAP-deleted; format: cell-based; details: for pIC50: Homo sapiens, HAP1, SDMA in-cell western, HAP1 MTAP-deleted, read-out: HAP 1 MTAP deleted IC50; for MTAP intact/deleted ratio: IC50 ratio HAP1 MTAP-intact / HAP1 MTAP-deleted, SDMA in-cell western
Outline: as §1

[6] = test system: HAP1 MTAP-deleted cell line; test: Viability assay, MTAP-deleted cell line; format: cell-based; details: Homo sapiens, HAP1, viability, HAP1 MTAP-deleted cell line; read-out: HAP1 MTAP deleted viability
Excerpt: Table 1 additionally indicates IC50 values in a viability assay for the MTAP-deleted cell line (column 10), indicating the effect of treatment with compound on cell survival.

T1 sequence (O14744 whole entry): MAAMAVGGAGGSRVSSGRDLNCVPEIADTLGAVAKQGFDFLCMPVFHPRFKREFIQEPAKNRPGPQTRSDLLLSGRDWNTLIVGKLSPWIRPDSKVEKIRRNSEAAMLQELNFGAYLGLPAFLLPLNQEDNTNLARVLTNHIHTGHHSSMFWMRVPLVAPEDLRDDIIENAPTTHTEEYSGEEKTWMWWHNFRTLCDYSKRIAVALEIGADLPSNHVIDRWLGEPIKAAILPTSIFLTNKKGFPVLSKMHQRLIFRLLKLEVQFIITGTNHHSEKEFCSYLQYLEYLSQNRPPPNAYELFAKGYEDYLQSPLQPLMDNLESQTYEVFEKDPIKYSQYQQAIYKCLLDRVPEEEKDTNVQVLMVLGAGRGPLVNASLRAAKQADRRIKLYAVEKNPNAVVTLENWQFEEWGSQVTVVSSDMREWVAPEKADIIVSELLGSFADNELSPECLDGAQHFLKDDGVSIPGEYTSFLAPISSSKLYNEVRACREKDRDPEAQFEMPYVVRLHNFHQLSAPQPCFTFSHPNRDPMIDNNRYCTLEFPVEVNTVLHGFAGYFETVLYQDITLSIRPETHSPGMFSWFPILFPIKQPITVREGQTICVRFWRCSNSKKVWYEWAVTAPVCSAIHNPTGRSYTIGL
T1 sequence (Q9BQA1 whole entry partner): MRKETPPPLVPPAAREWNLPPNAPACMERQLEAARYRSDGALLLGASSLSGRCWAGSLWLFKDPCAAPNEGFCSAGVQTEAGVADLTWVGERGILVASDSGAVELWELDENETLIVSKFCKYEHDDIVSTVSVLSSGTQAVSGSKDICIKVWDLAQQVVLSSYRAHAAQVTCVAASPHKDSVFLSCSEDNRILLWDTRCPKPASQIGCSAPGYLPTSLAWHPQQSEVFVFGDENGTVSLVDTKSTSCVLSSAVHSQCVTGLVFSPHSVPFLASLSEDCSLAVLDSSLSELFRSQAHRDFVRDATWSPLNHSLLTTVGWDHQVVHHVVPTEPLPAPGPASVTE

SMILES | pIC50 (PRMT5 [1]) | pIC50 (PRMT5 [2]) | pIC50 (PRMT5 [3]) | pIC50 [4] | pIC50 [5] | MTAP intact/deleted ratio [5] | pIC50 [6]
COc1ncc(NC(=O)C(=O)N2C[C@@H](C)CC[C@@H]2c2ccc3sc([C@H]4CCCN(C)C4)nc3c2)cc1C(N)=O [Compound 1359, 2-methoxy-5-(2-((2R,5S)-5-methyl-2-(2-((S)-1-methylpiperidin-3-yl)benzo[d]thiazol-5-yl)piperidin-1-yl)-2-oxoacetamido)nicotinamide] | > 7.30 | > 7.30 | > 7.30 | > 7.00 | > 7.00 | A (an IC50 ratio greater than or equal to 10 fold) | > 6.00
CCc1cc(NC(=O)C(=O)N2C[C@@H](C)CC[C@@H]2c2cccc(OC[C@@H]3CCCN3C)c2)cnc1N [Compound 1362, N-(6-amino-5-ethylpyridin-3-yl)-2-((2R,5S)-5-methyl-2-(3-((1-methylpyrrolidin-2-yl)methoxy)phenyl)piperidin-1-yl)-2-oxoacetamide] | 6.30 to 7.30 | > 7.30 | > 7.30 | 6.00 to 7.00 | > 7.00 | A (an IC50 ratio greater than or equal to 10 fold) | > 6.00
CCc1cc(NC(=O)C(=O)N2C[C@@H](C)CC[C@@H]2c2cccc(C3CCN(C)CC3)c2)cnc1N [Compound 1363, N-(6-Amino-5-ethyl-3-pyridyl)-2-oxo-2-[(2R,5S)-5-methyl-2-[3-(1-methyl-4-piperidyl)phenyl]-1-piperidyl]acetamide] | > 7.30 | > 7.30 | > 7.30 | 6.00 to 7.00 | > 7.00 | A (an IC50 ratio greater than or equal to 10 fold) | > 6.00
CCc1cc(NC(=O)C(=O)N2C[C@@H](C)CC[C@@H]2c2ccc3ccc(C4CCN(C)CC4)nc3c2)cnc1N [Compound 1365, N-(6-amino-5-ethyl-3-pyridyl)-2-oxo-2-[(2R,5S)-5-methyl-2-[2-(1-methyl-4-piperidyl)-7-quinolyl]-1-piperidyl]acetamide] | 6.30 to 7.30 | > 7.30 | > 7.30 | > 7.00 | > 7.00 | A (an IC50 ratio greater than or equal to 10 fold) | > 6.00
CCc1cc(NC(=O)C(=O)N2C[C@@H](C)CC[C@@H]2c2ccc3sc([C@@H]4[C@@H]5CN(C)C[C@@H]54)nc3c2)cnc1N [Compound 1366, N-(6-amino-5-ethylpyridin-3-yl)-2-((2R,5S)-5-methyl-2-(2-((1R,5S,6s)-3-methyl-3-azabicyclo[3.1.0]hexan-6-yl)benzo[d]thiazol-5-yl)piperidin-1-yl)-2-oxoacetamide] | > 7.30 | > 7.30 | > 7.30 | > 7.00 | > 7.00 | A (an IC50 ratio greater than or equal to 10 fold) | > 6.00
CCc1cc(NC(=O)C(=O)N2C[C@@H](C)CC[C@@H]2c2cccc(N3CCN(C)CC3)c2)cnc1N [Compound 1367, N-(6-amino-5-ethylpyridin-3-yl)-2-((2R,5S)-5-methyl-2-(3-(4-methylpiperazin-1-yl)phenyl)piperidin-1-yl)-2-oxoacetamide] | > 7.30 | > 7.30 | > 7.30 | 6.00 to 7.00 | > 7.00 | A (an IC50 ratio greater than or equal to 10 fold) | > 6.00
CCc1cc(NC(=O)C(=O)N2C[C@@H](C)CC[C@@H]2c2ccc3cc(C)c(C4CCN(C)CC4)nc3c2)cnc1N [Compound 1368, N-(6-amino-5-ethyl-3-pyridyl)-2-oxo-2-[(2R,5S)-5-methyl-2-[3-methyl-2-(1-methyl-4-piperidyl)-7-quinolyl]-1-piperidyl]acetamide] | 6.30 to 7.30 | > 7.30 | > 7.30 | > 7.00 | > 7.00 | A (an IC50 ratio greater than or equal to 10 fold) | > 6.00
CCc1cc(NC(=O)C(=O)N2C[C@@H](C)CC[C@@H]2c2ccc3sc(C45CC(C4)N(C)C5)nc3c2)cnc1N [Compound 1372] | > 7.30 | > 7.30 | > 7.30 | > 7.00 | > 7.00 | A (an IC50 ratio greater than or equal to 10 fold) | > 6.00
Cc1cc(NC(=O)C(=O)N2C[C@@H](C)CC[C@@H]2c2ccc3sc(C4CCN(CC(F)F)CC4)nc3c2)cnc1N [Compound 1377, N-(6-amino-5-methylpyridin-3-yl)-2-((2R,5S)-2-(2-(1-(2,2-difluoroethyl)piperidin-4-yl)benzo[d]thiazol-5-yl)-5-methylpiperidin-1-yl)-2-oxoacetamide] | 6.30 to 7.30 | > 7.30 | > 7.30 | 6.00 to 7.00 | > 7.00 | A (an IC50 ratio greater than or equal to 10 fold) | > 6.00
C[C@H]1CC[C@H](c2ccc3sc(CCN4CCCC4)nc3c2)N(C(=O)C(=O)Nc2cnc(N)c(C3COC3)c2)C1 [Compound 1379, N-(6-amino-5-(oxetan-3-yl)pyridin-3-yl)-2-((2R,5S)-5-methyl-2-(2-(2-(pyrrolidin-1-yl)ethyl)benzo[d]thiazol-5-yl)piperidin-1-yl)-2-oxoacetamide] | 6.30 to 7.30 | 6.30 to 7.30 | > 7.30 | > 7.00 | > 7.00 | A (an IC50 ratio greater than or equal to 10 fold) | > 6.00
CCc1cc(NC(=O)C(=O)N2C[C@@H](C)CC[C@@H]2c2ccc3sc(CN(CC)C(C)C)nc3c2)cnc1N [Compound 1380, N-(6-amino-5-ethylpyridin-3-yl)-2-((2R,5S)-2-(2-((ethyl(isopropyl)amino)methyl)benzo[d]thiazol-5-yl)-5-methylpiperidin-1-yl)-2-oxoacetamide] | 6.30 to 7.30 | > 7.30 | > 7.30 | 6.00 to 7.00 | > 7.00 | A (an IC50 ratio greater than or equal to 10 fold) | > 6.00
CCc1cc(NC(=O)C(=O)N2C[C@@H](C)CC[C@@H]2c2ccc3sc(C4CCN(C)CC4C)nc3c2)cnc1N (stereo partly drawn) [Compound 1382, N-(6-amino-5-ethyl-3-pyridyl)-2-[(5S)-2-[2-(1,3-dimethyl-4-piperidyl)-1,3-benzothiazol-5-yl]-5-methyl-1-piperidyl]-2-oxo-acetamide] | > 7.30 | > 7.30 | > 7.30 | > 7.00 | > 7.00 | A (an IC50 ratio greater than or equal to 10 fold) | > 6.00
CCc1cc(NC(=O)C(=O)N2C[C@@H](C)CC[C@@H]2c2ccc3sc(C4CCN(C)C4)nc3c2)cnc1N (some centres unmarked) [Compound 1383] | > 7.30 | > 7.30 | > 7.30 | > 7.00 | > 7.00 | A (an IC50 ratio greater than or equal to 10 fold) | > 6.00
CCc1cc(NC(=O)C(=O)N2C[C@@H](C)CC[C@@H]2c2ccc3sc([C@H]4CN(C)C(=O)CN4C)nc3c2)cnc1N [Compound 1385] | 6.30 to 7.30 | > 7.30 | > 7.30 | > 7.00 | > 7.00 | A (an IC50 ratio greater than or equal to 10 fold) | > 6.00
Cc1cc(NC(=O)C(=O)N2C[C@@H](C)CC[C@@H]2c2ccc3sc(CCN4CCOCC4)nc3c2)cnc1N [Compound 1387, N-(6-amino-5-methylpyridin-3-yl)-2-((2R,5S)-5-methyl-2-(2-(2-morpholinoethyl)benzo[d]thiazol-5-yl)piperidin-1-yl)-2-oxoacetamide] | 6.30 to 7.30 | > 7.30 | > 7.30 | > 7.00 | > 7.00 | B (an IC50 ratio greater than or equal to 3 fold but lower than 10 fold) | > 6.00
CCc1cc(NC(=O)C(=O)N2C[C@@H](C)CC[C@@H]2c2ccc3sc([C@H]4CCCN(C)C4)nc3c2)cnc1N [Compound 1388, N-(6-amino-5-ethylpyridin-3-yl)-2-((2R,5S)-5-methyl-2-(2-(1-methylpiperidin-3-yl)benzo[d]thiazol-5-yl)piperidin-1-yl)-2-oxoacetamide] | > 7.30 | > 7.30 | > 7.30 | > 7.00 | > 7.00 | A (an IC50 ratio greater than or equal to 10 fold) | > 6.00
CCc1cc(NC(=O)C(=O)N2C[C@@H](C)CC[C@@H]2c2ccc3sc(-c4ccnn4C)nc3c2)cnc1N [Compound 1389, N-(6-amino-5-ethylpyridin-3-yl)-2-((2R,5S)-5-methyl-2-(2-(1-methyl-1H-pyrazol-5-yl)benzo[d]thiazol-5-yl)piperidin-1-yl)-2-oxoacetamide] | 6.30 to 7.30 | > 7.30 | > 7.30 | 6.00 to 7.00 | > 7.00 | A (an IC50 ratio greater than or equal to 10 fold) | > 6.00
